Reference: patent publication US20170304336A1, “COMBINATION” (priority 2014, published 2017)
Values joined by “and” are separate entries in the source; they are usually repeats but may differ in a detail not shown here. Equal entries are not always repeated. One block for each compound: values may come before it.

Tests used:
[1] = tested on: experimental rat hypercholesterolemia model; assay: Lipid spectrum of blood in experimental rat hypercholesterolemia model; assay type: in vivo, male rats of Wistar line
Description: The animals used were male rats of Wistar line. […] The proposed model using rats as the experimental animals is a reproducible standard model for evaluation of hypocholesterolemic effect.
(§1) Evaluation of hypocholesterolemic efficacy and safety of pharmaceutical combination was performed in vivo in experimental rat hypercholesterolemia model.
(§2) For 90 days the studied animals received hypercholesterol diet for pathology induction. The diet included Cholesterol+Cholic acid+Overheated fats (deep fat).
For 90 days the animals received the said ration ad libitum (30 g feed per animal). Development of hypercholesterolemia in animals was evaluated based on changes in lipid spectrum parameters on Day 30 of the study.
(§3) Drugs were introduced intragastrically with an esophageal bougie daily on Day 31-90 of the study at the same time of day.
Biochemical parameters and activity of blood serum enzymes (total cholesterol (CHS), LDL-CHS, HDL-CHS, triglycerides.
1.0-1.84 ml blood samples for the study of biochemical parameters were taken from tail vein of rats. Blood samples were taken from the animals after 14-15-hour's fasting at same time of day (9.00-11.00). For biochemical parameters tests a Biochemical Analyzer A-25 (Biosystems, Spain) was used. […]

[2] = tested on: experimental rat hypercholesterolemia model; assay: Biochemical blood analysis (drug toxicity parameters) in rat hypercholesterolemia model; assay type: in vivo, male rats of Wistar line
Description: as §1, §2, §3
Biochemical parameters and activity of serum enzymes (aspartate- and alanine aminotransferase, creatine phosphokinase, urea, serum amylase, total bilirubin, direct bilirubin, indirect bilirubin, serum glucose, cations K^+, Na^+).
1.0-1.84 ml blood samples for the study of biochemical parameters were taken from tail vein of rats. Blood samples were taken from the animals after 14-15-hour's fasting at same time of day (9.00-11.00). For biochemical parameters tests a Biochemical Analyzer A-25 (Biosystems, Spain) was used.
Vol. 4. pp. 1794-1798; Pearlman F C and Lee R T Y. Clin Chem 1974, 20, 447-453; Zoppi F et al, Peracino A., Fenili D., Marcovina S. and Ramella C. Giorn It Chim Cl. […] C. et al Clin Chem. 1974. Vol. 20. pp. 470-475; and in Meiattini F., et al, Clin Chem. 1978. Vol. 24. pp. 2161-2165 (total cholesterol); Warnick G R et al. Clin Chem 2001, 47, 1579-96 (HDL/LDL); Bucolo G and David H. Clin Chem. 1973.-Vol. 19. pp. 476-482; and in Fossati P. and, Prencipe L., Clin Chem. 1982. Vol. 28. pp. 2077-2080 (triglycerides); Trinder P. Ann Clin Biochem. 1969. Vol. 6. pp. 24-27).

[3] = Mass coefficients of organs (pancreas, liver, kidneys) of rats; assay type: in vivo, male rats of Wistar line; conditions: for weight coefficient, Kidneys / weight coefficient, Liver: in %
Description: To calculate mass coefficients the pancreas, liver and kidneys of the animals were extracted. The organs were weighed and the mass coefficients were calculated by the following formula:
Mass coefficient=(organ weight/animal body weight)×100%

[4] = Stability of statin/glycyrrhizic acid molecular complexes by content of glycyrrhizic acid; assay type: physicochemical; conditions: interval between testing points 7 months; European Pharmacopoeia 7.0 methodology
Description: Stability of these complexes was determined on the basis of quantitative content of glycyrrhizic acid (in percentage form). The interval between the testing points was 7 months. The testing methodology was taken from European Pharmacopoeia 7.0. […] This decline is related both to the conditions of synthesis (maximum decline observed for liquid-phase synthesis) and to the properties of the active ingredient itself.

[5] = Dynamics of body weight of rabbits (Schemes A and B); assay type: in vivo, male rabbits of Californian breed; conditions: for Body weight: Scheme A, M ± SEM
[6] = Mass coefficients of liver and pancreas of rabbits; assay type: in vivo, male rabbits of Californian breed; conditions: for Mass ratios, M ± SEM, Liver / Mass ratios, M ± SEM, Pancreas: dose 100 mg; for pancreatic mass coefficients relative to the control group: rosuvastatin 40 mg, AGA 100 mg
[7] = Day 30 of treatment (Day 60 of study), dose 90 mg
[8] = Day 60 of treatment (Day 90 of study), dose 90 mg
[9] = blood, Day 60 of the treatment (Day 90 of the study), AV + GA 10 + 90 mg, AV 10 mg, GA 90 mg
[10] = blood, Day 60 of the treatment (Day 90 of the study), FV + GA 80 + 90 mg, FV 80 mg, GA 90 mg
[11] = M ± m, AV + GA 10 + 90 mg, AV 20 mg, GA 90 mg
[12] = M ± m, FV + GA 80 + 90 mg, FV 80 mg, GA 90 mg
[13] = Day 30 of treatment (Day 60 of study), dose 108 mg
[14] = Day 60 of treatment (Day 90 of study), dose 108 mg
[15] = blood, Day 60 of the treatment (Day 90 of the study), RV + AGA 10 + 108 mg, RV 10 mg, AGA 108 mg
[16] = blood, Day 60 of the treatment (Day 90 of the study), SV + AGA 20 + 108 mg, SV 20 mg, AGA 108 mg
[17] = (organ weight/animal body weight)×100%, Day 90 of study, dose 108 mg
[18] = M ± m, RV + AGA 10 + 108 mg, RV 10 mg, AGA 108 mg

weight coefficient, Pancreas [3, 11]: 0.20 ± 0.01^2 | weight coefficient, Kidneys [3, 11]: 0.80 ± 0.01 | weight coefficient, Liver [3, 11]: 4.41 ± 0.09 | weight coefficient, Pancreas [3, 12]: 0.23 ± 0.01^2 | weight coefficient, Kidneys [3, 12]: 0.80 ± 0.03 | weight coefficient, Liver [3, 12]: 4.42 ± 0.09 | stability with regard to time (content of glycyrrhizic acid) [4]: unstable
Compound: CC1(C)[C@@H](O[C@H]2O[C@H](C(=O)O)[C@@H](O)[C@H](O)[C@H]2O[C@@H]2O[C@H](C(=O)O)[C@@H](O)[C@H](O)[C@H]2O)CC[C@]2(C)[C@H]3C(=O)C=C4[C@@H]5C[C@@](C)(C(=O)O)CC[C@]5(C)CC[C@@]4(C)[C@]3(C)CC[C@@H]12 [GA, (3β,18α)-30-hydroxy-11,30-dioxoolean-12-en-3-yl 2-O-β-D-glucopyranuronosyl-β-D-glucopyranosiduronic acid]
HDL CHS [1, 7]: 0.63 ± 0.04 mmol/L | LDL CHS [1, 7]: 4.00 ± 0.3 mmol/L | TG [1, 7]: 1.6 ± 0.10 mmol/L | Total CHS [1, 7]: 5.2 ± 0.5 mmol/L | HDL CHS [1, 8]: 0.73 ± 0.04 mmol/L | LDL CHS [1, 8]: 3.90 ± 0.3 mmol/L | TG [1, 8]: 1.6 ± 0.10 mmol/L | Total CHS [1, 8]: 4.5 ± 0.5 mmol/L | ALT [2, 7]: 100 U/l | AST [2, 7]: 125 U/l and 132 U/l | Amylase [2, 7]: 618 U/l | Bilirubin direct [2, 7]: 2.2 mg/dL | Bilirubin indirect [2, 7]: 1.4 mg/dL | Bilirubin total [2, 7]: 4.5 mg/dL | CPK [2, 7]: 320 U/l | Glucose [2, 7]: 111 mg/dL | Potassium [2, 7]: 2.2 mM | Sodium [2, 7]: 135 mmol | Urea [2, 7]: 5.7 mmol/L | ALT [2, 9]: 103 U/l | AST [2, 9]: 115 U/l | Amylase [2, 9]: 600 U/l | Bilirubin direct [2, 9]: 2.2 mg/dL | Bilirubin indirect [2, 9]: 1.8 mg/dL | Bilirubin total [2, 9]: 4.3 mg/dL | CPK [2, 9]: 233 U/l | Glucose [2, 9]: 116 mg/dL | Potassium [2, 9]: 3.1 mM | Sodium [2, 9]: 123 mmol | Urea [2, 9]: 5.0 mmol/L | ALT [2, 10]: 103 U/l | AST [2, 10]: 121 U/l | Amylase [2, 10]: 600 U/l | Bilirubin direct [2, 10]: 2.2 mg/dL | Bilirubin indirect [2, 10]: 1.8 mg/dL | Bilirubin total [2, 10]: 4.3 mg/dL | CPK [2, 10]: 233 U/l | Glucose [2, 10]: 116 mg/dL | Potassium [2, 10]: 3.1 mM | Sodium [2, 10]: 123 mmol | Urea [2, 10]: 5.0 mmol/L

weight coefficient, Pancreas [3, 18]: 0.22 ± 0.01^2 | weight coefficient, Kidneys [3, 18]: 0.81 ± 0.01 | weight coefficient, Liver [3, 18]: 4.41 ± 0.08 | Mass ratios, M ± SEM, Liver ([6]; Scheme A): 3.3 ± 0.1 | Mass ratios, M ± SEM, Pancreas ([6]; Scheme A): 0.05 ± 0.003 | pancreatic mass coefficients relative to the control group ([6]; Scheme A): Statistically significant decrease | Mass ratios, M ± SEM, Liver ([6]; Scheme B): 3.0 ± 0.2 | Mass ratios, M ± SEM, Pancreas ([6]; Scheme B): 0.06 ± 0.004^ | pancreatic mass coefficients relative to the control group ([6]; Scheme B): statistically significant decrease
Compound: CC1(C)[C@@H](O[C@H]2O[C@H](C(=O)O)[C@@H](O)[C@H](O)[C@H]2O[C@@H]2O[C@H](C(=O)O)[C@@H](O)[C@H](O)[C@H]2O)CC[C@]2(C)[C@H]3C(=O)C=C4[C@@H]5C[C@@](C)(C(=O)O)CC[C@]5(C)CC[C@@]4(C)[C@]3(C)CC[C@@H]12.N [AGA, Monoammonium glycyrrhizinate]
HDL CHS [1, 13]: 0.53 ± 0.05 mmol/L | LDL CHS [1, 13]: 4.40 ± 0.4 mmol/L | TG [1, 13]: 1.5 ± 0.11 mmol/L | Total CHS [1, 13]: 5.8 ± 0.5 mmol/L | HDL CHS [1, 14]: 0.63 ± 0.05 mmol/L | LDL CHS [1, 14]: 3.80 ± 0.3 mmol/L | TG [1, 14]: 1.30 ± 0.12 mmol/L | Total CHS [1, 14]: 4.5 ± 0.4 mmol/L | ALT [2, 13]: 98 U/l | AST [2, 13]: 130 U/l | Amylase [2, 13]: 620 U/l | Bilirubin direct [2, 13]: 2.1 mg/dL | Bilirubin indirect [2, 13]: 1.8 mg/dL | Bilirubin total [2, 13]: 4.1 mg/dL | CPK [2, 13]: 310 U/l and 312 U/l | Glucose [2, 13]: 112 mg/dL | Potassium [2, 13]: 2.7 mM | Sodium [2, 13]: 120 mmol | Urea [2, 13]: 6.8 mmol/L | ALT [2, 15]: 100 U/l | AST [2, 15]: 131 U/l | Amylase [2, 15]: 600 U/l | Bilirubin direct [2, 15]: 2.3 mg/dL | Bilirubin indirect [2, 15]: 1.9 mg/dL | Bilirubin total [2, 15]: 2.9 mg/dL | CPK [2, 15]: 310 U/l | Glucose [2, 15]: 110 mg/dL | Potassium [2, 15]: 3.2 mM | Sodium [2, 15]: 122 mmol | Urea [2, 15]: 5.5 mmol/L | ALT [2, 16]: 100 U/l | AST [2, 16]: 131 U/l | Amylase [2, 16]: 600 U/l | Bilirubin direct [2, 16]: 2.3 mg/dL | Bilirubin indirect [2, 16]: 1.9 mg/dL | Bilirubin total [2, 16]: 2.9 mg/dL | CPK [2, 16]: 310 U/l | Glucose [2, 16]: 110 mg/dL | Potassium [2, 16]: 3.2 mM | Sodium [2, 16]: 122 mmol | Urea [2, 16]: 5.5 mmol/L | Body weight ([5]; Day 0 (Before the study), dose group 100 mg (Table 37)): 2936 ± 150 g | Body weight ([5]; Day 28 (in the setting of pathology without treatment), dose group 100 mg (Table 37)): 3369 ± 168 g | Body weight ([5]; Day 90 (in the setting of pathology with treatment), dose 100 mg (Table 37)): 3955 ± 119 g | body weight versus control animals ([5]; Scheme B, day 120, rosuvastatin+AGA 20+200 mg, atorvastatin+AGA 20+100 mg, AGA 100 mg): significantly lower | Body weight, M ± SEM, Day 120 (in the setting of pathology with treatment) ([5]; Scheme B, dose 100 mg): 4150 ± 144^2 g | Body weight, M ± SEM, Day 0 (Before the study) ([5]; Scheme B, dose 100 mg, baseline): 2809 ± 145 g | Body weight, M ± SEM, Day 56 (in the setting of pathology without treatment) ([5]; Scheme B, dose 100 mg, before treatment): 3569 ± 164 g | weight coefficient, Pancreas [3, 17]: 0.21 ± 0.01^2 | weight coefficient, Kidneys [3, 17]: 0.81 ± 0.02 | weight coefficient, Liver [3, 17]: 4.40 ± 0.09
